22 compounds from patent US20230113037A1 (Bayer Aktiengesellschaft, priority 2019, published 2023) can be followed below.

SMILES strings stand for the structures.

For assay [1], the target named is T1, AHR (Homo sapiens, UniProt P35869).
T1 construct: U87 MG glioblastoma cells (ATCC #HTB-14) endogenously expressing AHR; endogenous in cells; host or cells: U87 MG glioblastoma cells (ATCC #HTB-14)
T1 sequence (P35869 11-848): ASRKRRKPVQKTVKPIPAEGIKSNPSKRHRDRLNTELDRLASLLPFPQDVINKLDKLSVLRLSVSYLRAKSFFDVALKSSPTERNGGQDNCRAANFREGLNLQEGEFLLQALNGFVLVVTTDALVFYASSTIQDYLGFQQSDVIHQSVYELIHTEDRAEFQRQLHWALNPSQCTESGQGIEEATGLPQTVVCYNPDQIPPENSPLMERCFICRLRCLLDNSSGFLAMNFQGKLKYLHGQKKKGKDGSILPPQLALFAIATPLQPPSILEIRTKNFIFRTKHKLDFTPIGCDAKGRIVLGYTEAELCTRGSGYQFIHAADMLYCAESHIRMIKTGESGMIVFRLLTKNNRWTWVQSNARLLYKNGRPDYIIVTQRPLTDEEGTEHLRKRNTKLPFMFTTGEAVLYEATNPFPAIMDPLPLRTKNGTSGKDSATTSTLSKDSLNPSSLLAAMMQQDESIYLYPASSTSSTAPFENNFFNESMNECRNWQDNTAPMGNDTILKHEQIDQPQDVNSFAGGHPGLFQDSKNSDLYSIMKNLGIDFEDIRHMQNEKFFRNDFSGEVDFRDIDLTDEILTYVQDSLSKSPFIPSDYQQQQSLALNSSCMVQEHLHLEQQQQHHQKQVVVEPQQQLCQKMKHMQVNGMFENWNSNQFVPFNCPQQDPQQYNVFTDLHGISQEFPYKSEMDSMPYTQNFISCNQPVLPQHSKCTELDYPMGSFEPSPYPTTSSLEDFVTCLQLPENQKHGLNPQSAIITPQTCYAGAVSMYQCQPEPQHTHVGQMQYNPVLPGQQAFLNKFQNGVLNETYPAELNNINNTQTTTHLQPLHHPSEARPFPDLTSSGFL
As to the kind of experiment: In vitro assay 1: antagonism in human cell line (AHR transactivation, firefly luciferase reporter, kynurenic acid prestimulated). Format: cell-based. Conditions: AHR Antagonism Human IC50 [M]. In a few lines: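 Antagonism is measured against kynurenic acid prestimulation in U87 MG glioblastoma cells carrying stable DRE-luciferase and Renilla reporters. Positive inhibition control: 150 μM kynurenic acid with 5 μM staurosporine. Values are normalized to controls; repeats are averaged or given as medians.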

The target in assay [2] is T2, AHR (Mus musculus, UniProt P30561).
T2 sequence (P30561 1-848 P471L/N533S/M589L): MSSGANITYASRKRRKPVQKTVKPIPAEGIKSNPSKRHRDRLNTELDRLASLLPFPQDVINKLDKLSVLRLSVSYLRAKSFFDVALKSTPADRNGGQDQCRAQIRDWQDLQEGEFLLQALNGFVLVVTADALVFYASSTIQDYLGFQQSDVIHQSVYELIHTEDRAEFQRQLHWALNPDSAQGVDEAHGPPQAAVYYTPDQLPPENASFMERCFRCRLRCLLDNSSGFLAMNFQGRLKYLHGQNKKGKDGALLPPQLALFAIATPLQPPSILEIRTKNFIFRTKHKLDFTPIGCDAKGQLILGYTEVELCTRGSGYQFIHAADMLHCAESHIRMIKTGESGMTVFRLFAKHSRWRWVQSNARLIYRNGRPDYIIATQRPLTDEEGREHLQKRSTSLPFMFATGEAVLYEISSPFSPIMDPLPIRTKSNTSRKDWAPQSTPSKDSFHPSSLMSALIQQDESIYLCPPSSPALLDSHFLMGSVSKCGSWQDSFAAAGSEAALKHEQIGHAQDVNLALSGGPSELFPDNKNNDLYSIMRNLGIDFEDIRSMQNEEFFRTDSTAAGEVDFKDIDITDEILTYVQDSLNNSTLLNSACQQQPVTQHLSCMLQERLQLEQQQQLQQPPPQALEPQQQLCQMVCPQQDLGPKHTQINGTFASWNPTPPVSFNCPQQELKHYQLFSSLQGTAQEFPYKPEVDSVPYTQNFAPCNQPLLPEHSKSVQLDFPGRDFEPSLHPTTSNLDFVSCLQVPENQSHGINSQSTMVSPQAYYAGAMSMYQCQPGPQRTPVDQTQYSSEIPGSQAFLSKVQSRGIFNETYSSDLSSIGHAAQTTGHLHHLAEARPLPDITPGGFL
As to the kind of experiment: In vitro assay 3: antagonism in mouse cell line (AHR transactivation, firefly luciferase reporter, kynurenic acid prestimulated). Conditions: mouse Hepa 1c1c7 cells, 200 μM kynurenic acid, 20 hours, read-out: AHR Antagonism Mouse IC50. Format: cell-based. A digest of the protocol: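 Luminescence from an AHR-dependent DRE-luciferase reporter, stably integrated in mouse cells, quantifies blockade of kynurenic acid-driven activation. Unstimulated cells mark maximal inhibition; normalization uses both control types, and multiply tested compounds carry mean or median values.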

On to `COc1ccc(-c2nc3c4cccc(C5(C(F)(F)F)CC5)c4nc(N[C@@H]4CNCCNC4=O)n3n2)cc1` [Example 431, (6R)-6-({2-(4-methoxyphenyl)-7-[1-(trifluoromethyl)cyclopropyl][1,2,4]triazolo[1,5-c]quinazolin-5-yl}amino)-1,4-diazepan-5-one], for which the IC50 against AHR [1] is 1.43e-08 M; at AHR [2], 0.0606 µM.
On to `COCCn1cc(-c2nc3c4ccccc4nc(N[C@@H]4CCCCNC4=O)n3n2)cn1` [Example 432, (3R)-3-({2-[1-(2-methoxyethyl)-1H-pyrazol-4-yl][1,2,4]triazolo[1,5-c]quinazolin-5-yl}amino)azepan-2-one], for which the IC50 against AHR [1] was determined as 6.11e-08 M; at AHR [2], 0.0181 µM.
For the compound `COc1ccc(-c2nc3c4ccccc4nc(NC4CCCCCNC4=O)n3n2)cc1` (centres unmarked) [Example 433, 3-{[2-(4-methoxyphenyl)[1,2,4]triazolo[1,5-c]quinazolin-5-yl]amino}azocan-2-one], the IC50 against AHR [1] is 1.64e-09 M; on AHR [2] it was 0.000647 µM.
Take `CC[C@H](Nc1nc2ccccc2c2nc(-c3ccc(OC)cc3)nn12)C(N)=O` [Example 434, (2S)-2-{[2-(4-methoxyphenyl)[1,2,4]triazolo[1,5-c]quinazolin-5-yl]amino}butanamide]: the IC50 was 6.43e-08 M at AHR [1] and 0.075 µM at AHR [2].
Turning to `Cn1cc(-c2nc3c4ccccc4nc(N[C@@H]4CCCCNC4=O)n3n2)nn1` [Example 435], the values for the IC50 against AHR [1] and at AHR [2] were 1.3e-07 M and 0.164 µM, respectively.
For `N#Cc1ccc(-c2nc3c4ccccc4nc(N[C@H]4CCCCNC4=O)n3n2)cc1` [Example 437, 4-(5-{[(3S)-2-oxoazepan-3-yl]amino}[1,2,4]triazolo[1,5-c]quinazolin-2-yl)benzonitrile], in that order: 3.65e-08 M and 0.00787 µM.
Consider `CCCCNC(=O)CNc1nc2ccccc2c2nc(-c3ccc(S(C)(=O)=O)cc3)nn12` [Example 438, N-butyl-N^2-{2-[4-(methanesulfonyl)phenyl][1,2,4]triazolo[1,5-c]quinazolin-5-yl}glycinamide], for which the IC50 against AHR [1] worked out at 2.9e-07 M; on AHR [2], 0.13 µM.
As for `CCCNC(=O)[C@@H](C)Nc1nc2ccccc2c2nc(-c3ccc(S(C)(=O)=O)cc3)nn12` [Example 439, N^2-{2-[4-(methanesulfonyl)phenyl][1,2,4]triazolo[1,5-c]quinazolin-5-yl}-N-propyl-D-alaninamide], the values for the IC50 against AHR [1] and on AHR [2] were 4.52e-08 M and 0.027 µM, respectively.
As for `O=C1NCCCC[C@H]1Nc1nc2ccccc2c2nc(-c3ccc(Br)cc3OC(F)(F)F)nn12` [Example 440, (3R)-3-({2-[4-bromo-2-(trifluoromethoxy)phenyl][1,2,4]triazolo[1,5-c]quinazolin-5-yl}amino)azepan-2-one], the figures for the IC50 at AHR [1] and on AHR [2] were 2.43e-09 M and 0.000642 µM, respectively.
The corresponding values for `CCCCNC(=O)[C@H](C)Nc1nc2ccccc2c2nc(-c3cccc(C#N)c3)nn12` [Example 441, N-butyl-N^2-[2-(3-cyanophenyl)[1,2,4]triazolo[1,5-c]quinazolin-5-yl]alaninamide] are 1.36e-07 M and 0.0293 µM.
As for `CC[C@H](Nc1nc2ccccc2c2nc(-c3cccc(C#N)c3)nn12)C(N)=O` [Example 442, (2S)-2-{[2-(3-cyanophenyl)[1,2,4]triazolo[1,5-c]quinazolin-5-yl]amino}butanamide], the IC50 worked out at 4.89e-06 M against AHR [1] and 0.264 µM at AHR [2].
The corresponding values for `N#Cc1cccc(-c2nc3c4ccccc4nc(NC4CCCCCNC4=O)n3n2)c1` (centres unmarked) [Example 443, 3-(5-{[2-oxoazocan-3-yl]amino}[1,2,4]triazolo[1,5-c]quinazolin-2-yl)benzonitrile] are 1.02e-08 M and 0.000672 µM.
With `CN(C)c1cccc(-c2nc3c4ccccc4nc(N[C@@H]4CCCCNC4=O)n3n2)c1` [Example 446, (3R)-3-({2-[3-(dimethylamino)phenyl][1,2,4]triazolo[1,5-c]quinazolin-5-yl}amino)azepan-2-one], the 50% inhibitory concentration (IC50) on AHR [1] came to 2.92e-09 M; on AHR [2], 0.00051 µM.
For the compound `O=C1NCCCCCC1Nc1nc2ccccc2c2nc(-c3cccc(OC(F)(F)F)c3)nn12` (centres unmarked) [Example 447, 3-({2-[3-(trifluoromethoxy)phenyl][1,2,4]triazolo[1,5-c]quinazolin-5-yl}amino)azocan-2-one], the IC50 worked out at 2.27e-08 M on AHR [1] and 0.0113 µM on AHR [2].
For the compound `CSc1cccc(-c2nc3c4ccccc4nc(N[C@@H]4CCCCNC4=O)n3n2)c1` [Example 449, (3R)-3-({2-[3-(methylsulfanyl)phenyl][1,2,4]triazolo[1,5-c]quinazolin-5-yl}amino)azepan-2-one], the half-inhibitory concentration (IC50) against AHR [1] was found to be 1.73e-08 M; at AHR [2], 0.021 µM.
As to `CC[C@H](Nc1nc2ccccc2c2nc(-c3ccccc3S(C)(=O)=O)nn12)C(N)=O` [Example 450, (2S)-2-({2-[2-(methanesulfonyl)phenyl][1,2,4]triazolo[1,5-c]quinazolin-5-yl}amino)butanamide], the IC50 on AHR [1] was above 2e-05 M; on AHR [2], 8.57 µM.
Regarding `CC[C@@H](Nc1nc2ccccc2c2nc(-c3ccccc3S(C)(=O)=O)nn12)C(N)=O` [Example 451, (2R)-2-({2-[2-(methanesulfonyl)phenyl][1,2,4]triazolo[1,5-c]quinazolin-5-yl}amino)butanamide], the results for the IC50 against AHR [1] and on AHR [2] were 7.16e-06 M and 0.131 µM, respectively.
As to `O=C1NCCCC[C@H]1Nc1nc2ccccc2c2nc(-c3ccccc3Br)nn12` [Example 452, (3R)-3-{[2-(2-bromophenyl)[1,2,4]triazolo[1,5-c]quinazolin-5-yl]amino}azepan-2-one], the IC50 amounted to 3.98e-09 M on AHR [1] and 0.00335 µM at AHR [2].
Turning to `O=C1NCCCC[C@H]1Nc1nc2ccccc2c2nc(-c3ccccc3OC(F)(F)F)nn12` [Example 456, (3R)-3-({2-[2-(trifluoromethoxy)phenyl][1,2,4]triazolo[1,5-c]quinazolin-5-yl}amino)azepan-2-one], the IC50 at AHR [1] was 2.98e-09 M; on AHR [2], 0.00356 µM.
With `O=C1NCCCC[C@@H]1Nc1nc2ccccc2c2nc(-c3ccccc3OC(F)(F)F)nn12` [Example 457, (3S)-3-({2-[2-(trifluoromethoxy)phenyl][1,2,4]triazolo[1,5-c]quinazolin-5-yl}amino)azepan-2-one], the IC50 against AHR [1] was determined as 9.89e-07 M; at AHR [2] it was 0.0783 µM.
For `O=C1NCCC[C@H]1Nc1nc2ccccc2c2nc(-c3ccccc3OC(F)(F)F)nn12` [Example 458, (3R)-3-({2-[2-(trifluoromethoxy)phenyl][1,2,4]triazolo[1,5-c]quinazolin-5-yl}amino)piperidin-2-one], in that order: 6.37e-08 M and 0.028 µM.
`O=C1NCC[C@H]1Nc1nc2ccccc2c2nc(-c3ccccc3OC(F)(F)F)nn12` [Example 459, (3R)-3-({2-[2-(trifluoromethoxy)phenyl][1,2,4]triazolo[1,5-c]quinazolin-5-yl}amino)pyrrolidin-2-one]: the IC50 was determined as 7.9e-08 M at AHR [1] and 0.0302 µM at AHR [2].
